Laboratory results taken from patent US9067897B2, “2,4-Diaminoquinazolines for spinal muscular atrophy” (Families of Spinal Muscular Atrophy, priority 2004, dated 2015).
Structures can show the parent of a compound that is named as a salt.

System: SMN2 promoter
Experiment: SMN2 promoter assay (β-lactamase reporter) in NSC-34 cells
Format: cell-based, mouse
Conditions: SMN2 promoter driving β-lactamase, 12 point dose curve, average of 3-6 dose curve experiments
Text: All compounds were screened using an in vitro based SMN2 promoter assay. We used NSC-34 cells, a hybrid cell line between mouse spinal cord cells and mouse neuroblastoma cells. NSC-34 cells harbor an expression plasmid containing a 3.4 kb promoter fragment of the SMN2 gene driving β-lactamase expression.
[…] […] CCF2-AM diffuses across the plasma membrane and is converted into an active β-lactamase substrate by cytoplasmic esterase. […] The fold induction is proportional to the extent of β-lactamase produced and in turn proportional to SMN2 promoter activation for a given compound relative to vehicle (DMSO) control. […] These values are used to rank activities of the compounds and derive structure activity relationship.

Row | EC50 (Mus musculus) | EC50 | Structure (SMILES)
1 | < 1000 nM | – | Nc1nc(N)c2c(OCc3cnc4ccccc4c3)cccc2n1 [Example 112, 5-(Quinolin-3-ylmethoxy)-quinazoline-2,4-diamine]
2 | < 1000 nM | – | Nc1nc(N)c2c(OCc3cccc4cccnc34)cccc2n1 [Example 113, 5-(Quinolin-8-ylmethoxy)-quinazoline-2,4-diamine]
3 | < 1000 nM | – | COCC(Oc1cccc2nc(N)nc(N)c12)c1ccc(Cl)cc1 (stereo not shown) [Example 114, 5-[1-(4-Chlorophenyl)-2-methoxyethoxy]-quinazoline-2,4-diamine]
4 | < 1000 nM | – | Nc1nc(N)c2c(OC(C(=O)O)c3ccc(Cl)cc3)cccc2n1 (stereo not shown) [Example 115, (4-Chlorophenyl)-(2,4-diamino-quinazolin-5-yloxy)-acetic acid]
5 | < 1000 nM | – | Nc1nc(N)c2c(OCC3CCNCC3)cccc2n1 [Example 116, 5-(Piperidin-4-ylmethoxy)-quinazoline-2,4-diamine hydrochloride]
6 | < 1000 nM | – | CN1CCCCC1COc1cccc2nc(N)nc(N)c12 (stereo not shown) [Example 117, 5-(1-Methyl-piperidin-2-ylmethoxy)-quinazoline-2,4-diamine]
7 | < 1000 nM | – | Nc1nc(N)c2c(O[C@@H]3C[C@H]4CC[C@@H]3C4)cccc2n1 [Example 118, 5-((1R,2R,4S)-Bicyclo[2.2.1]hept-2-yloxy)quinazoline-2,4-diamine]
8 | – | < 1000 nM | Nc1nc(N)c2c(OC3C4CC5CC(C4)CC3C5)cccc2n1 (stereo not shown) [Example 119, 5-(Adamanta-2-yloxy)quiazoline-2,4-diamine]
9 | < 1000 nM | – | CC(Oc1cccc2nc(N)nc(N)c12)C1CCCC1 (stereo not shown) [Example 120, 5-(1-Cyclopentyl-ethoxy)-quinazoline-2,4-diamine]
10 | < 1000 nM | – | CC(C)(C)OC(=O)N1CCC(COc2cccc3nc(N)nc(N)c23)CC1 [Example 121, 4-(2,4-Diamino-quinazolin-5-yloxymethyl)-piperidin-1-carboxylic acid tert-butyl ester]
11 | < 1000 nM | – | Nc1nc(N)c2c(OCC3CC4C=CC3C4)cccc2n1 (stereo not shown) [Example 122, 5-(Bicyclo[2.2.1]hept-5-en-2-ylmethoxy)-quinazoline-2,4-diamine]
12 | < 1000 nM | – | Nc1nc(N)c2c(OCC3CCN(C(=O)c4ccc(Cl)cc4)CC3)cccc2n1 [Example 123, (4-Chlorophenyl)-[4-(2,4-diamino-quinazolin-5-yloxymethyl)-piperidin-1-yl]-methanone]
13 | < 1000 nM | – | Nc1nc(N)c2c(OC3CC4CCC3C4)cccc2n1 (stereo not shown) [Example 124, 5-(Bicyclo[2.2.1]hept-2-yloxy)-quinazoline-2,4-diamine]
14 | < 1000 nM | – | CC(Oc1cccc2nc(N)nc(N)c12)C1CCCCC1 (stereo not shown) [Example 126, 5-(1-Cyclohexyl-ethoxy)-quinazoline-2,4-diamine]
15 | < 1000 nM | – | CC1(COc2cccc3nc(N)nc(N)c23)COC1 [Example 127, 5-(3-Methyl-oxetan-3-ylmethoxy)-quinazoline-2,4-diamine]
16 | < 1000 nM | – | Nc1nc(N)c2c(OC3COc4ccc(Cl)cc43)cccc2n1 (stereo not shown) [Example 128, 5-(5-Chloro-2,3-dihydro-benzofuran-3-yloxy)-quinazoline-2,4-diamine]
17 | < 1000 nM | – | CCC(Oc1cccc2nc(N)nc(N)c12)C1CCCCC1 (stereo not shown) [Example 129, 5-(1-Cyclohexylpropoxy)-quinazoline-2,4-diamine]
18 | < 1000 nM | – | Nc1nc(N)c2c(OCC3CC4CC3C(O)C4O)cccc2n1 (stereo not shown) [Example 131, 5-(2,4-Diamino-quinazolin-5-yloxymethyl)-bicyclo[2.2.1]heptane-2,3-diol]
19 | < 1000 nM | – | Nc1nc(N)c2c(OCC3CCN(C(=O)c4ccccc4Cl)CC3)cccc2n1 [Example 133, (2-Chlorophenyl)-[4-(2,4-diamino-quinazolin-5-yloxymethyl)-piperidin-1-yl]-methanone]
20 | < 1000 nM | – | Nc1nc(N)c2c(OCC3CCN(C(=O)c4cccc(Cl)c4)CC3)cccc2n1 [Example 134, (3-Chlorophenyl)-[4-(2,4-diamino-quinazolin-5-yloxymethyl)-piperidin-1-yl]-methanone]
21 | – | < 1000 nM | Nc1nc(N)c2c(OCC3CCN(C(=O)c4cccc(I)c4)CC3)cccc2n1 [Example 135, [4-(2,4-Diaminoquinzolin-5-yloxymethyl)piperidin-1-yl]-(3-iodophenyl)methanone]
22 | – | < 1000 nM | Nc1nc(N)c2c(OCC3CCN(C(=O)c4ccc(I)cc4)CC3)cccc2n1 [Example 136, [4-(2,4-Diaminoquinzolin-5-yloxymethyl)piperidin-1-yl]-(4-iodophenyl)methanone]
23 | – | < 1000 nM | Nc1nc(N)c2c(OCC3CCN(C(=O)c4ccccc4I)CC3)cccc2n1 [Example 137, [4-(2,4-Diaminoquinzolin-5-yloxymethyl)piperidin-1-yl]-(2-iodophenyl)methanone]

Row | EC50 (Mus musculus) | EC50 | Structure (SMILES)
24 | < 1000 nM | – | Nc1nc(N)c2c(COc3ccccc3Cl)cccc2n1 [Example 138, 5-(2-Chlorophenoxymethyl)quinazoline-2,4-diamine]
25 | < 1000 nM | – | Cc1cc(Cl)ccc1OCc1cccc2nc(N)nc(N)c12 [Example 139, 5-(4-Chloro-2-methylphenoxymethyl)quinazoline-2,4-diamine]
26 | 1000 to 5000 nM | – | CC(C)(Oc1cccc2nc(N)nc(N)c12)c1cccc(Cl)c1 [Example 140, 5-[1-(3-Chlorophenyl)-1-methylethoxy]quinazoline-2,4-diamine]
27 | < 1000 nM | – | Cc1cc(OCc2cccc3nc(N)nc(N)c23)ccc1Cl [Example 141, 5-(4-Chloro-3-methylphenoxymethyl)quinazoline-2,4-diamine]
28 | < 1000 nM | – | COc1ccccc1COc1cccc2nc(N)nc(N)c12 [Example 142, 5-(2-Methoxybenzyloxy)quinazoline-2,4-diamine]
29 | < 1000 nM | – | COc1cccc(COc2cccc3nc(N)nc(N)c23)c1 [Example 143, 5-(3-Methoxybenzyloxy)quinazoline-2,4-diamine]
30 | < 1000 nM | – | COc1ccc(COc2cccc3nc(N)nc(N)c23)cc1 [Example 144, 5-(4-Methoxybenzyloxy)quinazoline-2,4-diamine]
31 | 1000 to 5000 nM | – | Nc1nc(N)c2c(OC3(c4cccc(Cl)c4)CCCCC3)cccc2n1 [Example 145, 5-[1-(3-Chlorophenyl)cyclohexyloxy]quinazoline-2,4-diamine]
32 | < 1000 nM | – | Nc1nc(N)c2c(OC3(c4cccc(Cl)c4)CC3)cccc2n1 [Example 146, 5-[1-(3-Chlorophenyl)cyclopropoxy]quinazoline-2,4-diamine]
33 | 1000 to 5000 nM | – | COc1ccc(OCc2cccc3nc(N)nc(N)c23)cc1 [Example 148, 5-(4-Methoxyphenoxymethyl)quinazoline-2,4-diamine]
34 | < 1000 nM | – | Nc1nc(N)c2c(O[C@H]3CCc4ccc(Cl)cc43)cccc2n1 [Example 149, 5-((S)-6-Chloroindan-1-yloxy)quinazoline-2,4-diamine]
35 | < 1000 nM | – | Nc1nc(N)c2c(O[C@@H]3CCc4ccc(Cl)cc43)cccc2n1 [Example 150, 5-((R)-6-Chloroindan-1-yloxy)quinazoline-2,4-diamine]
36 | < 1000 nM | – | Nc1nc(N)c2c(OCC3CC4CCC3C4)cccc2n1 (stereo not shown) [Example 151, 5-(Bicyclo[2.2.1]hept-2-ylmethoxy)quinazoline-2,4-diamine]
37 | < 1000 nM | – | CC1(C)[C@H]2CC[C@H](COc3cccc4nc(N)nc(N)c34)[C@@H]1C2 [Example 152, 5-((1S,2S,5S)-6,6-Dimethylbicyclo[3.1.1]hept-2-ylmethoxy) quinazoline-2,4-diamine]
38 | < 1000 nM | – | COCOCC(Oc1cccc2nc(N)nc(N)c12)c1ccc(F)cc1 (stereo not shown) [Example 153, 5-[1-(4-Fluorophenyl)-2-methoxymethoxyethoxy]quinazoline-2,4-diamine]
39 | < 1000 nM | – | Nc1nc(N)c2c(OC(CO)c3ccc(F)cc3)cccc2n1 (stereo not shown) [Example 154, 2-(2,4-Diaminoquinazolin-5-yloxy)-2-(4-fluorophenyl)ethanol hydrochloride]
40 | < 1000 nM | – | COCOC(COc1cccc2nc(N)nc(N)c12)c1ccc2c(c1)OCO2 (stereo not shown) [Example 155, 5-(2-Benzo[1,3]dioxol-5-yl-2-methoxymethoxyethoxy)quinazoline-2,4-diamine]
41 | < 1000 nM | – | COCOCC(Oc1cccc2nc(N)nc(N)c12)c1ccc2c(c1)OCO2 (stereo not shown) [Example 156, 5-(1-Benzo[1,3]dioxol-5-yl-2-methoxymethoxyethoxy)quinazoline-2,4-diamine]
42 | < 1000 nM | – | Nc1nc(N)c2c(OCC(O)c3ccccc3)cccc2n1 (stereo not shown) [Example 157, 2-(2,4-Diaminoquinazolin-5-yloxy)-1-phenyl-ethanol]
43 | < 1000 nM | – | Nc1nc(N)c2c(COc3ccccc3I)cccc2n1 [Example 159, 5-(2-Iodophenoxymethyl)quinazoline-2,4-diamine]
44 | < 1000 nM | – | Nc1nc(N)c2c(OCC(O)c3ccc(Cl)cc3)cccc2n1 (stereo not shown) [Example 160, 1-(4-Chlorophenyl)-2-(2,4-diaminoquinazolin-5-yloxy)ethanol]
45 | < 1000 nM | – | Nc1nc(N)c2c(OCC(O)c3cccc(Cl)c3)cccc2n1 (stereo not shown) [Example 161, 1-(3-Chlorophenyl)-2-(2,4-diaminoquinazolin-5-yloxy)ethanol]
46 | < 1000 nM | – | C[C@H](Oc1cccc2nc(N)nc(N)c12)c1cccc(Cl)c1 [Example 162, 5-[(S)-1-(3-Chlorophenyl)ethoxy]quinazolin-2,4-diamine]

Row | Structure (SMILES) | EC50 (Mus musculus) | EC50
47 | CCCC(Oc1cccc2nc(N)nc(N)c12)C1CCCCC1 (stereo not shown) [Example 125, 5-(1-Cyclohexyl-butoxy)-quinazoline-2,4-diamine] | < 1000 nM | –
48 | Nc1nc(N)c2c(COc3ccc(F)cc3F)cccc2n1 [Example 147, 5-(2,4-Difluorophenoxymethyl)quinazoline-2,4-diamine] | < 1000 nM | –
49 | Nc1nc(N)c2c(COc3cccc(Cl)c3)cccc2n1 [Example 158, 5-(3-Chlorophenoxymethyl)quinazoline-2,4-diamine] | < 1000 nM | –
